# According to ChEMBL document CHEMBL1201862, “PubChem BioAssay data set” (2004):
#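 Compound exposure: 48 hours, 5 concentrations, 96-well plates. The concentration for 50% growth inhibition is given as GI50.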 Activity calls are given as the source filed them. Cut-off read from the data, not from the text of the source: active = GI50 up to about 1.1 µM and inactive = higher.
# Assays:
# Test in all cases: NCI-60 cell line screen, 48 h
# LOX IMVI = test system: LOX IMVI
# 786-0 = test system: 786-0
# SN12C = test system: SN12C
# SK-MEL-2 = test system: SK-MEL-2
# HOP-92 = test system: HOP-92
# EKVX = test system: EKVX
# SF-539 = test system: SF-539
# CCRF-CEM = test system: CCRF-CEM
# TK-10 = test system: TK-10
# CAKI-1 = test system: CAKI-1
# SK-MEL-28 = test system: SK-MEL-28
# SF-295 = test system: SF-295
# NCI-H23 = test system: NCI-H23
# OVCAR-3 = test system: OVCAR-3
# RXF 393 = test system: RXF 393
# UO-31 = test system: UO-31
# NCI-H226 = test system: NCI-H226
# MOLT-4 = test system: MOLT-4
# NCI-H522 = test system: NCI-H522
Structure (SMILES),GI50 (LOX IMVI),GI50 (786-0),GI50 (SN12C),GI50 (SK-MEL-2),GI50 (HOP-92),GI50 (EKVX),GI50 (SF-539),GI50 (CCRF-CEM),GI50 (TK-10),GI50 (CAKI-1),GI50 (SK-MEL-28),GI50 (SF-295),GI50 (NCI-H23),GI50 (OVCAR-3),GI50 (RXF 393),GI50 (UO-31),GI50 (NCI-H226),GI50 (MOLT-4),GI50 (NCI-H522)
COc1ccc(C(=O)NCCC2=CCCCC2)cc1,> 100 µM (inactive),> 100 µM (inactive),> 100 µM (inactive),> 100 µM (inactive),78.5 µM (inactive),> 100 µM (inactive),> 100 µM (inactive),> 100 µM (inactive),> 100 µM (inactive),> 100 µM (inactive),> 100 µM (inactive),> 100 µM (inactive),> 100 µM (inactive),> 100 µM (inactive),> 100 µM (inactive),,,,
CCn1c(CSc2nc(-c3ccccc3)c(-c3ccccc3)[nH]2)n[nH]c1=S,> 100 µM (inactive),> 100 µM (inactive),> 100 µM (inactive),> 100 µM (inactive),> 100 µM (inactive),> 100 µM (inactive),> 100 µM (inactive),> 100 µM (inactive),> 100 µM (inactive),,> 100 µM (inactive),> 100 µM (inactive),> 100 µM (inactive),> 100 µM (inactive),,> 100 µM (inactive),> 100 µM (inactive),> 100 µM (inactive),> 100 µM (inactive)
CCn1cnc2c(=S)nc(N)[nH]c21,> 100 µM (inactive),> 100 µM (inactive),> 100 µM (inactive),,,> 100 µM (inactive),> 100 µM (inactive),> 100 µM (inactive),> 100 µM (inactive),,> 100 µM (inactive),> 100 µM (inactive),> 100 µM (inactive),> 100 µM (inactive),> 100 µM (inactive),> 100 µM (inactive),> 100 µM (inactive),> 100 µM (inactive),> 100 µM (inactive)
CN(C)CCNC(=O)c1cccc2c1nc(-c1ccccn1)c1ccccc12,> 10 µM (inactive),18.9 µM (inactive),23.9 µM (inactive),18.8 µM (inactive),18.6 µM (inactive),22.7 µM (inactive),16.4 µM (inactive),13.5 µM (inactive),> 10 µM (inactive),18.1 µM (inactive),15.6 µM (inactive),17.6 µM (inactive),15.7 µM (inactive),17.4 µM (inactive),14.6 µM (inactive),10.4 µM (inactive),> 10 µM (inactive),3.87 µM (inactive),
C#Cc1cccc(N2C(=O)CC(=P(c3ccccc3)(c3ccccc3)c3ccccc3)C2=O)c1,,24.5 µM (inactive),> 100 µM (inactive),84.7 µM (inactive),,44.2 µM (inactive),,50.1 µM (inactive),> 100 µM (inactive),> 100 µM (inactive),81.3 µM (inactive),> 100 µM (inactive),40.7 µM (inactive),31.5 µM (inactive),,> 100 µM (inactive),58.2 µM (inactive),51.8 µM (inactive),25 µM (inactive)
O=C(Nc1ccc(Br)cc1)C(=O)C(C(=O)c1ccccc1F)C1OC(=O)c2ccccc21 (configuration not stated),18.4 µM (inactive),22.5 µM (inactive),27.9 µM (inactive),21.8 µM (inactive),27.7 µM (inactive),81.1 µM (inactive),20.1 µM (inactive),18.6 µM (inactive),50.5 µM (inactive),37.8 µM (inactive),18.7 µM (inactive),,17.9 µM (inactive),39.8 µM (inactive),,22.3 µM (inactive),3.48 µM (inactive),25.3 µM (inactive),20.7 µM (inactive)
CC12N=NN(c3ccc([N+](=O)[O-])cc3)C1(O)c1ccccc1C2=O (configuration not stated),> 100 µM (inactive),> 100 µM (inactive),> 100 µM (inactive),,,> 100 µM (inactive),70.1 µM (inactive),,> 100 µM (inactive),,,> 100 µM (inactive),> 100 µM (inactive),> 100 µM (inactive),> 100 µM (inactive),> 100 µM (inactive),> 100 µM (inactive),,> 100 µM (inactive)
COCOCCCCCO[Si](C)(C)C(C)(C)C,16.5 µM (inactive),14.4 µM (inactive),17.2 µM (inactive),16 µM (inactive),17.7 µM (inactive),20 µM (inactive),19.1 µM (inactive),16.7 µM (inactive),33 µM (inactive),,35.1 µM (inactive),14.8 µM (inactive),17.2 µM (inactive),14.4 µM (inactive),16.6 µM (inactive),20.5 µM (inactive),,16.1 µM (inactive),13.7 µM (inactive)
N#Cc1c(-c2ccco2)cc(-c2ccc(N)cc2)[nH]c1=O,> 100 µM (inactive),> 100 µM (inactive),> 100 µM (inactive),,> 100 µM (inactive),> 100 µM (inactive),> 100 µM (inactive),> 100 µM (inactive),> 100 µM (inactive),,> 100 µM (inactive),> 100 µM (inactive),> 100 µM (inactive),> 100 µM (inactive),> 100 µM (inactive),> 100 µM (inactive),> 100 µM (inactive),> 100 µM (inactive),> 100 µM (inactive)
C[C@@H]1CC[C@@H](C)[C@](C)(CCc2ccoc2)C/C=C\C=C/1C(=O)O,> 50 µM (inactive),> 50 µM (inactive),> 50 µM (inactive),> 50 µM (inactive),> 50 µM (inactive),> 50 µM (inactive),> 50 µM (inactive),> 50 µM (inactive),> 50 µM (inactive),> 50 µM (inactive),> 50 µM (inactive),> 50 µM (inactive),32.1 µM (inactive),> 50 µM (inactive),> 50 µM (inactive),> 50 µM (inactive),> 50 µM (inactive),31.8 µM (inactive),
CC1CC(C)C(=O)C(C(=O)CC2CC(=O)NC2=O)C1 (configuration not stated),> 100 µM (inactive),> 100 µM (inactive),> 100 µM (inactive),,> 100 µM (inactive),> 100 µM (inactive),> 100 µM (inactive),> 100 µM (inactive),> 100 µM (inactive),> 100 µM (inactive),> 100 µM (inactive),> 100 µM (inactive),> 100 µM (inactive),> 100 µM (inactive),> 100 µM (inactive),> 100 µM (inactive),> 100 µM (inactive),,> 100 µM (inactive)
Cc1cc(NS(=O)(=O)c2ccc(Nc3c4ccccc4nc4c(C(=O)Nc5ccc(S(=O)(=O)N=C(N)N)cc5)ccc(Cl)c34)cc2)no1,19.6 µM (inactive),50.4 µM (inactive),31.2 µM (inactive),,,65 µM (inactive),18.5 µM (inactive),,> 100 µM (inactive),54.2 µM (inactive),54.5 µM (inactive),73.3 µM (inactive),29.9 µM (inactive),21.5 µM (inactive),29 µM (inactive),34.5 µM (inactive),28.2 µM (inactive),24.7 µM (inactive),16 µM (inactive)
COc1cccc(-c2cc(O)c3cc(OC)ccc3n2)c1,0.439 µM (active),0.376 µM (active),0.685 µM (active),0.321 µM (active),0.488 µM (active),0.92 µM (active),0.188 µM (active),0.195 µM (active),0.5 µM (active),0.475 µM (active),,0.18 µM (active),0.32 µM (active),0.188 µM (active),0.199 µM (active),0.426 µM (active),0.396 µM (active),0.311 µM (active),
COC(=O)c1c(C)oc2ccc(OC(C)=O)cc12,> 100 µM (inactive),> 100 µM (inactive),> 100 µM (inactive),> 100 µM (inactive),,54.3 µM (inactive),> 100 µM (inactive),> 100 µM (inactive),> 100 µM (inactive),> 100 µM (inactive),> 100 µM (inactive),> 100 µM (inactive),> 100 µM (inactive),> 100 µM (inactive),> 100 µM (inactive),33.6 µM (inactive),> 100 µM (inactive),> 100 µM (inactive),> 100 µM (inactive)
COc1ccc(OC)c(NC(=O)CCC/C(CC(=O)c2ccc(O)c(OC)c2)=N\NC(=O)C[N+](C)(C)C)c1,> 100 µM (inactive),> 100 µM (inactive),> 100 µM (inactive),> 100 µM (inactive),> 100 µM (inactive),> 100 µM (inactive),> 100 µM (inactive),> 100 µM (inactive),> 100 µM (inactive),> 100 µM (inactive),> 100 µM (inactive),> 100 µM (inactive),> 100 µM (inactive),> 100 µM (inactive),,> 100 µM (inactive),> 100 µM (inactive),> 100 µM (inactive),> 100 µM (inactive)
CC1(Cl)CC2OC3(Br)C=CC(C)(O)C2(CC1Br)C3(C)C (configuration not stated),> 100 µM (inactive),> 100 µM (inactive),> 100 µM (inactive),> 100 µM (inactive),50.9 µM (inactive),> 100 µM (inactive),> 100 µM (inactive),> 100 µM (inactive),> 100 µM (inactive),> 100 µM (inactive),> 100 µM (inactive),> 100 µM (inactive),> 100 µM (inactive),> 100 µM (inactive),> 100 µM (inactive),> 100 µM (inactive),> 100 µM (inactive),> 100 µM (inactive),
